# System: subjects with MDD
# Test: SHAPS total score / anhedonia level (Example 6)
# Format: in vivo, human
# Conditions: for SHAPS Total Score Change from Baseline LSMean (SE) / SHAPS Total Score LSMean Difference (SE) Treatment Placebo: MMRM; for SHAPS Total Score Effect Size: negative favors aticaprant
# Source text: To assess a potential effect on anhedonia, an anhedonia scale may be used. For example, the Snaith-Hamilton Pleasure Scale (SHAPS) analysis is a validated scale for the measurement of anhedonia. The SHAPS is a subject completed scale in which subjects score whether or not they experience pleasure in performing a list of activities or experiences. The SHAPS is a self-reported 14-item instrument, developed for the assessment of hedonic capacity. Subjects score whether they experience pleasure in performing a list of activities or experiences. Subjects can rate the answers as 1-4 where 1 indicates “Definitely agree”, 2 indicates “Agree”, 3 indicates “Disagree” and 4 indicates “Definitely disagree”. The subject's item responses are summed to provide a total score ranging from 14 to 56. A higher total SHAPS score indicates higher levels of current anhedonia. Physician/clinical judgment can be used to assess anhedonia separately or in conjunction with an anhedonia scale.
# In some embodiments, the patient has moderate anhedonia. In other embodiments, the patient has severe anhedonia. An assessment of moderate or severe anhedonia is typically determined physician/clinical judgment and/or by one or more tests that provide insight into whether a patient has anhedonia. For example, the severity of the anhedonia may be determined using the SHAPS method. In some embodiments, a patient with moderate or severe anhedonia is considered to have a high level of anhedonia. For example, a patient with a SHAPS score of 38 or greater is considered to have moderate to severe anhedonia that can be considered a high level of anhedonia. In some embodiments, a high level of anhedonia is reflected by a SHAPS score of at least about 40, about 42, about 44, about 46, about 48, about 50, about 52, about 54, about 56, […]. A patient with mild or no anhedonia would be considered to have a low level of anhedonia that is assessed by physician/clinical judgment and/or one or more tests. For example, a patient with a SHAPS score of less than 38 is considered to have low anhedonia. In certain embodiments, a patient with mild anhedonia may have a SHAPS score of 20 to less than 38, for example, a SHAPS score of 20 to about 36, about 22 to about 36, about 24 to about 36, about 26 to about 36, about 26 to about 34, about 26 to about 32, about 26 to about 30, about 26 to about 28, about 28 to about 36, about 28 to about 36, about 30, to about 36, about 32 to about 36, about 34 to about 36, about 20 to about 34, about 22 to about 34, about 24 to about 34, about 26 to about 32, about 26 to about 30, about 26 to about 28, about 28 to about 36, about 28 to about 34, about 28 to about 32, about 28 to about 30, about 30 to about 36, about 30 to about 34, about 30 to about 32, about 32 to about 36, about 32 to about 34, or about 34 to about 36. Typically, a SHAPS score of less than 20 can be considered to correspond to normal hedonic functioning, and for purposes of this disclosure, would fall into the low category of anhedonia, e.g., a SHAPS score of less than 38.
# iii. To investigate the effect of aticaprant versus placebo on depression related anhedonia as assessed by the SHAPS.
# • (i) Depression: Montgomery-Åsberg Depression Rating Scale (MADRS), Clinical Global Impression-Severity (CGI-S), Symptoms of Major Depressive Disorder Scale (SMDDS), and Self-assessment of treatment experience (SATE) • (ii) Anhedonia: Snaith-Hamilton Pleasure Scale (SHAPS) • (iii) Anxiety: Structured Interview Guide for the Hamilton Anxiety scale (SIGH-A) and HAM-A6 • (iv) Effects on Cognition: The Cognitive and Physical Functioning Questionnaire (CPFQ) • (v) Safety assessments
# Changes in SHAPS total score were analyzed with the same MMRM model used for MADRS total score. The estimated LS Mean difference with 80% 2-sided CI at treatment week 6 between aticaprant and placebo was −0.7 [−1.81, 0.41]. See, FIG. 7 and Tables 28 and 29 and FIG. 18. The corresponding p-value was 0.419.
# [1] = eITT Analysis Set, Treatment Baseline
# [2] = eITT Analysis Set, Treatment Week 1
# [3] = eITT Analysis Set, Treatment Week 3
# [4] = eITT Analysis Set, Treatment Week 4
# [5] = eITT Analysis Set, Treatment Week 5
# [6] = eITT Analysis Set, Treatment Week 6
# [7] = eITT, Treatment Week 1, 10 mg adjunctive to SSRI/SNRI
# [8] = eITT, Treatment Week 3, 10 mg adjunctive to SSRI/SNRI
# [9] = eITT, Treatment Week 4, 10 mg adjunctive to SSRI/SNRI
# [10] = eITT, Treatment Week 5, 10 mg adjunctive to SSRI/SNRI
# [11] = eITT, Treatment Week 6, 10 mg adjunctive to SSRI/SNRI
# [12] = fITT Analysis Set, Baseline/Day 22, Table 42
# [13] = fITT Analysis Set, Treatment Baseline
# [14] = fITT Analysis Set, Treatment Week 1
# [15] = fITT Analysis Set, Treatment Week 3
# [16] = fITT Analysis Set, Treatment Week 4
# [17] = fITT Analysis Set, Treatment Week 5
# [18] = fITT Analysis Set, Treatment Week 6
smiles,measurement,setting,value
"Cc1cc(C)cc(C2CCCN2Cc2ccc(Oc3ccc(C(N)=O)cc3F)cc2)c1 (centres unmarked) [aticaprant, 3-fluoro-4-4-2-(3,5-dimethylphenyl)pyrrolidin-1-yl-methylphenoxybenzamide]","SHAPS total score estimated LS mean difference between aticaprant and placebo, MMRM","Treatment Week 6, population not given, follows Table 29 (fITT)",−0.8
same,"Frequency of subjects: High Level of Anhedonia (SHAPS Total Score >= 38), %",[1],(43.33%)
same,"Frequency of subjects: Low Level of Anhedonia (20 <= SHAPS Total Score < 38), %",[1],56.67%
same,SHAPS Total Score Change from Baseline Mean (SD),[2],−1.9
same,SHAPS Total Score Mean (SD),[2],34.5
same,SHAPS Total Score Change from Baseline LSMean (SE),[2],−1.7
same,SHAPS Total Score LSMean Difference (SE) Treatment Placebo,[2],−0.8 (0.86)
same,SHAPS Total Score Change from Baseline Mean (SD),[3],−3.4
same,SHAPS Total Score Mean (SD),[3],33.0
same,SHAPS Total Score Change from Baseline LSMean (SE),[3],−3.2
same,SHAPS Total Score LSMean Difference (SE) Treatment Placebo,[3],−1.4 (0.86)
same,SHAPS Total Score Change from Baseline Mean (SD),[4],−4.5
same,SHAPS Total Score Mean (SD),[4],32.0
same,SHAPS Total Score Change from Baseline LSMean (SE),[4],−4.3
same,SHAPS Total Score LSMean Difference (SE) Treatment Placebo,[4],−1.4 (0.86)
same,SHAPS Total Score Change from Baseline Mean (SD),[5],−4.3
same,SHAPS Total Score Mean (SD),[5],32.4
same,SHAPS Total Score Change from Baseline LSMean (SE),[5],−4.0
same,SHAPS Total Score LSMean Difference (SE) Treatment Placebo,[5],−0.5 (0.87)
same,"Frequency of subjects: High Level of Anhedonia (SHAPS Total Score >= 38), %",[6],(13.56%)
same,"Frequency of subjects: Low Level of Anhedonia (20 <= SHAPS Total Score < 38), %",[6],81.36%
same,"Frequency of subjects: No Anhedonia (SHAPS Total Score < 20), %",[6],5.08%
same,SHAPS Total Score Change from Baseline Mean (SD),[6],−4.6
same,SHAPS Total Score Mean (SD),[6],31.9
same,SHAPS Total Score Change from Baseline LSMean (SE),[6],−4.4
same,SHAPS Total Score LSMean Difference (SE) Treatment Placebo,[6],−0.7 (0.87)
same,SHAPS Total Score Mean Change from Baseline (SD),[7],−1.9 (4.30)
same,SHAPS Total Score Mean Change to Placebo (SD pooled),[7],−0.6 (3.77)
same,SHAPS Total Score Effect Size,"eITT, Treatment Week 1, vs placebo",−0.15
same,SHAPS Total Score Mean Change from Baseline (SD),[8],−3.4 (5.25)
same,SHAPS Total Score Mean Change to Placebo (SD pooled),[8],−1.2 (4.96)
same,SHAPS Total Score Effect Size,"eITT, Treatment Week 3, vs placebo",−0.25
same,SHAPS Total Score Mean Change from Baseline (SD),[9],−4.5 (5.89)
same,SHAPS Total Score Mean Change to Placebo (SD pooled),[9],−1.2 (5.21)
same,SHAPS Total Score Effect Size,"eITT, Treatment Week 4, vs placebo",−0.23
same,SHAPS Total Score Mean Change from Baseline (SD),[10],−4.3 (6.07)
same,SHAPS Total Score Mean Change to Placebo (SD pooled),[10],−0.4 (5.49)
same,SHAPS Total Score Effect Size,"eITT, Treatment Week 5, vs placebo",−0.08
same,"SHAPS total score estimated LS mean difference between aticaprant and placebo, MMRM","eITT, Treatment Week 6",−0.7
same,SHAPS Total Score Mean Change from Baseline (SD),[11],−4.6 (6.23)
same,SHAPS Total Score Mean Change to Placebo (SD pooled),[11],−0.4 (5.66)
same,"Frequency of subjects: Anhedonia (SHAPS Total Score >=20), %",[12],98.8%
same,"Frequency of subjects: No Anhedonia (SHAPS Total Score < 20), %",[12],1.2%
same,"Frequency of subjects: High Level of Anhedonia (SHAPS Total Score >= 38), %",[13],36.14%
same,"Frequency of subjects: Low Level of Anhedonia (20 >= SHAPS Total Score <38), %",[13],62.65%
same,"Frequency of subjects: No Anhedonia (SHAPS Total Score < 20), %","fITT Analysis Set, Treatment Baseline, Table 44",1.2%
same,SHAPS Total Score Mean (SD),[14],32.9
same,SHAPS Total Score Mean Change to Placebo (SD pooled),[14],−0.6 (3.82)
same,SHAPS Total Score Change from Baseline Mean (SD),"fITT Analysis Set, Treatment Week 1 (Table 29)",−2.0
same,SHAPS Total Score Mean Change from Baseline (SD),"fITT Analysis Set, Treatment Week 1 (Table 30)",−2.0 (4.05)
same,SHAPS Total Score Change from Baseline LSMean (SE),[14],−1.9
same,SHAPS Total Score LSMean Difference (SE) Treatment Placebo,[14],−1.0 (0.72)
same,SHAPS Total Score Effect Size,[14],−0.15
same,SHAPS Total Score Mean (SD),[15],31.9
same,SHAPS Total Score Mean Change to Placebo (SD pooled),[15],−1.0 (5.09)
same,SHAPS Total Score Change from Baseline Mean (SD),"fITT Analysis Set, Treatment Week 3 (Table 29)",−3.2
same,SHAPS Total Score Mean Change from Baseline (SD),"fITT Analysis Set, Treatment Week 3 (Table 30)",−3.2 (5.07)
same,SHAPS Total Score Change from Baseline LSMean (SE),[15],−3.1
same,SHAPS Total Score LSMean Difference (SE) Treatment Placebo,[15],−1.4 (0.73)
same,SHAPS Total Score Effect Size,[15],−0.20
same,SHAPS Total Score Mean (SD),[16],30.8
same,SHAPS Total Score Mean Change to Placebo (SD pooled),[16],−1.2 (5.08)
same,SHAPS Total Score Change from Baseline Mean (SD),"fITT Analysis Set, Treatment Week 4 (Table 29)",−4.2
same,SHAPS Total Score Mean Change from Baseline (SD),"fITT Analysis Set, Treatment Week 4 (Table 30)",−4.2 (5.70)
same,SHAPS Total Score Change from Baseline LSMean (SE),[16],−4.1
same,SHAPS Total Score LSMean Difference (SE) Treatment Placebo,[16],−1.6 (0.73)
same,SHAPS Total Score Effect Size,[16],−0.23
same,SHAPS Total Score Mean (SD),[17],30.9
same,SHAPS Total Score Mean Change to Placebo (SD pooled),[17],−0.5 (5.24)
same,SHAPS Total Score Change from Baseline Mean (SD),"fITT Analysis Set, Treatment Week 5 (Table 29)",−4.3
same,SHAPS Total Score Mean Change from Baseline (SD),"fITT Analysis Set, Treatment Week 5 (Table 30)",−4.3 (5.70)
same,SHAPS Total Score Change from Baseline LSMean (SE),[17],−4.1
same,SHAPS Total Score LSMean Difference (SE) Treatment Placebo,[17],−0.8 (0.73)
same,SHAPS Total Score Effect Size,[17],−0.09
same,"Frequency of subjects: High Level of Anhedonia (SHAPS Total Score >= 38), %",[18],10.39%
same,"Frequency of subjects: Low Level of Anhedonia (20 >= SHAPS Total Score <38), %",[18],80.52%
same,"Frequency of subjects: No Anhedonia (SHAPS Total Score < 20), %",[18],9.09%
same,SHAPS Total Score Mean (SD),[18],30.5
same,SHAPS Total Score Mean Change to Placebo (SD pooled),[18],−0.5 (5.45)
same,SHAPS Total Score Change from Baseline Mean (SD),"fITT Analysis Set, Treatment Week 6 (Table 29)",−4.7
same,SHAPS Total Score Mean Change from Baseline (SD),"fITT Analysis Set, Treatment Week 6 (Table 30)",−4.7 (5.91)
same,SHAPS Total Score Change from Baseline LSMean (SE),[18],−4.5
same,SHAPS Total Score LSMean Difference (SE) Treatment Placebo,[18],−0.8 (0.73)
same,SHAPS Total Score Effect Size,[18],−0.08
same,SHAPS total score mean change from treatment baseline (SD),"fITT, Treatment Week 6",−4.7 (5.91)
same,SHAPS total score observed effect size,"fITT, Treatment Week 6",0.08

# Source: patent US12201610B2, “Compositions comprising aticaprant” (Janssen Pharmaceuticals, Inc., priority 2022, dated 2025)
